Measured values reported in PubChem BioAssay AID2060510 (Molecular Pharmacology Branch, DTP, NCI, 2025).

Tested on: 439559-082-T-J2-PDC spheroids viability
Experiment: Anticancer human tumor 439559-082-T-J2-PDC patient-derived colon adenocarcinoma cell line growth inhibition [GQUAD]
Settings: for IC50: curve of first compound; for viability, T/C: stronger effect = lower value
Description: DNA G-quadruplex Stabilizer Agents in Combinations in Complex Spheroids
A high-throughput screen of multi-cell type tumor spheroids was designed to identify active combinations of DNA G-quadruplex stabilizer agents and targeted small molecules. Complex spheroids include a stromal component modeled by human endothelial cells (HUVEC) and fibroblasts modeled by human mesenchymal stem cells (MSCs). The concentration ranges selected for each drug and investigational agent were based upon clinically achievable concentrations if the clinical Cmax of the agent was known.
Compounds. The drugs and investigational agents: pidnarulex (CX-5461; NSC782164), APTO-253 (NSC789042), BRACO-19 (NSC847499), peposertib (NSC802822), ceralasertib (NSC780249), elimusertib (NSC800525), camonsertib (NSC841442), AZD-1390 (NSC803789), olaparib (NSC753686), talazoparib (NSC767125), ART-558 (NSC835418), sotorasib (NSC818433), MRTX-1133 (NSC836407), SN-38 (NSC673596), topotecan (NSC609699), etoposide (NSC141540), doxorubicin (NSC123127), gemcitabine (NSC613327), 5-fluorouracil (NSC19893), paclitaxel (NSC125973), vemurafenib (NSC761431), panobinostat (NSC761190), R-306465 (JNJ-16241199; NSC773264), adavosertib (NSC754352), TP-3654 (NSC805149), carboplatin (NSC241240), KSQ-4279 (NSC840948), and staurosporine (NSC755774) were obtained from the National Cancer Institute (NCI) Developmental Therapeutics Program Chemical Repository (34). The FDA-approved anticancer drug set is available from the NCI Developmental Therapeutics Program. […] The stock solutions were prepared in dimethyl sulfoxide (DMSO, Sigma-Aldrich, St. Louis, MO, cat. D2650) at 800-fold the tested concentration and stored at -70 degrees C prior to their use. All drugs and investigational agents were tested over a range starting from a high concentration at or near the clinical Cmax and decreasing in half-log increments. If the clinical Cmax for an agent had not been determined, the highest concentration tested was 10 microM.
2.3 Cell Culture. All cells were maintained in an incubator at 37 degrees C and 5% CO2 with 95% humidity. The PDC lines were cultured according to standard operating procedures established by the NCI PDMR. All PDCs were thawed and cultured in Matrigel-coated flasks prepared with a working solution of 1X Ham's F-12 nutrient mix, without supplementation (Invitrogen, cat. 11765054), 100 U/mL penicillin-streptomycin (Invitrogen, cat. 15140122), and 2.5% Matrigel (Corning Inc., cat. 354248) for the first three passages. The 857933-349-R-J2-PDC line was cultured in 6C/Colon 1B media, which includes advanced DMEM/F-12 (Thermo Fisher Scientific, cat. 12634028), 10 mM HEPES (Thermo Fisher Scientific, cat. 15630080), 1X GlutaMAX supplement (Thermo Fisher Scientific, cat. 35050061), 0.1 mg/mL primocin (InvivoGen, cat. ant-pm-2), 10% defined fetal bovine serum, heat inactivated (HyClone Laboratories Inc., cat. SH30070.03HI), 50% L-WRN conditioned media (ATCC, cat. CRL-3276), 1.25 mM N-Acetyl-L-cysteine (Sigma-Aldrich, cat. A9165), 10 mM nicotinamide (Sigma-Aldrich, cat. N0636), 1X B-27 supplement (Thermo Fisher Scientific, cat. 17504044), 1X N-2 supplement (Thermo Fisher Scientific, cat. 17502048), 10 microM Y-27632 dihydrochloride (Tocris Bioscience, cat. 1254), and 50 ng/mL human EGF recombinant protein (Thermo Fisher Scientific, cat. PHG0311). The 485176-168-R4-J1-PDC line was cultured in Panc media, which includes all 6C/Colon 1B media components plus 100 ng/mL human FGF-10 (Thermo Fisher Scientific, cat. 100-26), 500 nM SB-431542 (Selleckchem, cat. S1067), and gastrin (Tocris, cat. 3006).
[…]
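Also: spheroids exposed to the agents for 7 days before readout.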
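For viability, T/C in this document: percent of luminescence signal in DMSO vehicle wells taken as 100% viability.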

`C=CC(=O)N1CCN(c2nc(=O)n(-c3c(C)ccnc3C(C)C)c3nc(-c4c(O)cccc4F)c(F)cc23)C(C)C1` (configuration not stated) + Cc1[nH]c2ccc(F)cc2c1-c1nc2c3cccnc3c3ncccc3c2[nH]1 was tested. Which IC50 (second compound 0.0316 µM) did it give?
Its IC50 is over 10 µM.

What about the IC50 (second compound 0.1 µM) of the same compound?
The IC50 was over 10 µM.

And the IC50 (second compound 0.316 µM)?
The IC50 was over 10 µM.

And the IC50 (second compound 1 µM)?
The IC50 was over 10 µM.

And the IC50 (second compound 3.16 µM)?
Its IC50 is over 10 µM.

And the IC50 (second compound 10 µM)?
The IC50 was over 10 µM.

What about the viability, T/C (second compound 0.0316 µM, first compound 0.0316 µM) of the same compound?
The viability, T/C was 106%.

What about the viability, T/C (second compound 0.0316 µM, first compound 0.1 µM) of the same compound?
Its viability, T/C is 92.6%.

And the viability, T/C (second compound 0.0316 µM, first compound 0.316 µM)?
Its viability, T/C is 99.3%.

What about the viability, T/C (second compound 0.0316 µM, first compound 1 µM) of the same compound?
The viability, T/C was 103%.

What about the viability, T/C (second compound 0.0316 µM, first compound 3.16 µM) of the same compound?
Its viability, T/C is 109%.

What about the viability, T/C (second compound 0.0316 µM, first compound 10 µM) of the same compound?
Its viability, T/C is 101%.

What about the viability, T/C (second compound 0.1 µM, first compound 0.0316 µM) of the same compound?
Its viability, T/C is 103%.

And the viability, T/C (second compound 0.1 µM, first compound 0.1 µM)?
The viability, T/C was 95.5%.

And the viability, T/C (second compound 0.1 µM, first compound 0.316 µM)?
Its viability, T/C is 101%.

And the viability, T/C (second compound 0.1 µM, first compound 1 µM)?
Its viability, T/C is 95.4%.

What about the viability, T/C (second compound 0.1 µM, first compound 3.16 µM) of the same compound?
The viability, T/C was 112%.

What about the viability, T/C (second compound 0.1 µM, first compound 10 µM) of the same compound?
The viability, T/C was 96.5%.

What about the viability, T/C (second compound 0.316 µM, first compound 0.0316 µM) of the same compound?
Its viability, T/C is 108%.

And the viability, T/C (second compound 0.316 µM, first compound 0.1 µM)?
The viability, T/C was 95.1%.

And the viability, T/C (second compound 0.316 µM, first compound 0.316 µM)?
Its viability, T/C is 102%.

And the viability, T/C (second compound 0.316 µM, first compound 1 µM)?
The viability, T/C was 103%.

And the viability, T/C (second compound 0.316 µM, first compound 3.16 µM)?
Its viability, T/C is 104%.

What about the viability, T/C (second compound 0.316 µM, first compound 10 µM) of the same compound?
Its viability, T/C is 97.8%.

And the viability, T/C (second compound 1 µM, first compound 0.0316 µM)?
Its viability, T/C is 89.3%.

What about the viability, T/C (second compound 1 µM, first compound 0.1 µM) of the same compound?
Its viability, T/C is 103%.

What about the viability, T/C (second compound 1 µM, first compound 0.316 µM) of the same compound?
Its viability, T/C is 93.4%.

And the viability, T/C (second compound 1 µM, first compound 1 µM)?
The viability, T/C was 93.8%.

What about the viability, T/C (second compound 1 µM, first compound 3.16 µM) of the same compound?
The viability, T/C was 100%.

What about the viability, T/C (second compound 1 µM, first compound 10 µM) of the same compound?
Its viability, T/C is 88.7%.

What about the viability, T/C (second compound 3.16 µM, first compound 0.0316 µM) of the same compound?
Its viability, T/C is 89.1%.

What about the viability, T/C (second compound 3.16 µM, first compound 0.1 µM) of the same compound?
Its viability, T/C is 90.5%.

What about the viability, T/C (second compound 3.16 µM, first compound 0.316 µM) of the same compound?
Its viability, T/C is 85.6%.

What about the viability, T/C (second compound 3.16 µM, first compound 1 µM) of the same compound?
Its viability, T/C is 92.4%.

And the viability, T/C (second compound 3.16 µM, first compound 3.16 µM)?
The viability, T/C was 92.1%.

And the viability, T/C (second compound 3.16 µM, first compound 10 µM)?
Its viability, T/C is 80.2%.

What about the viability, T/C (second compound 10 µM, first compound 0.0316 µM) of the same compound?
Its viability, T/C is 64.6%.

And the viability, T/C (second compound 10 µM, first compound 0.1 µM)?
Its viability, T/C is 73.1%.

What about the viability, T/C (second compound 10 µM, first compound 0.316 µM) of the same compound?
The viability, T/C was 84%.

And the viability, T/C (second compound 10 µM, first compound 1 µM)?
Its viability, T/C is 76%.

And the viability, T/C (second compound 10 µM, first compound 3.16 µM)?
The viability, T/C was 79.3%.

And the viability, T/C (second compound 10 µM, first compound 10 µM)?
Its viability, T/C is 80.3%.
